Experimental data reported in paper PMC10341786 (International Journal of Molecular Sciences, 2023).

Experiments:
in vitro [1] = conditions: pig
WNV = assay: microbe, parasite or virus in culture; format: cell-based, West Nile virus strain Strix nebulosa-12; conditions: for EC50: West Nile virus, Vero, read-out: WNV EC50
in vitro [2] = conditions: African green monkey
in vitro [3] = conditions: African green monkey; remark: listed apart in the source
TBEV = assay: microbe, parasite or virus in culture; format: cell-based, Tick-borne encephalitis virus strain Absettarov; conditions: Tick-borne encephalitis virus, PEK, read-out: TBEV EC50
in vitro [4] = conditions: pig; remark: listed apart in the source
YFV = assay: microbe, parasite or virus in culture; format: cell-based, yellow fever virus strain 17D; conditions: Yellow fever virus, read-out: YFV EC50
DENV-1 = conditions: cited from earlier work
DENV-3 = conditions: cited from earlier work
DENV-2 = conditions: cited from earlier work

| Compound | CC50 (in vitro [1]) | EC50 (WNV) | CC50 (in vitro [2]) | CC50 (in vitro [3]) | EC50 (TBEV) | CC50 (in vitro [4]) | EC50 (YFV) | acute and chronic cytotoxicity in Vero cells (in words) (Vero cells) | melting point | cytotoxicity against PEK cells during 7 days of incubation (in words) (PEK cells) | anti-WNV activity (in words) (WNV) | EC50 (DENV-1) | EC50 (DENV-3) | EC50 (DENV-2) |
| --- | --- | --- | --- | --- | --- | --- | --- | --- | --- | --- | --- | --- | --- | --- |
| O=S(=O)(Cc1ccccc1)NC1=NOC2(CCCCCCC2)C1 [3b] | > 50 µM | 9.9 ± 1.5 µM | > 50 µM | > 50 µM | 13 ± 8 µM | > 50 µM | 24 ± 11 µM |  |  |  |  |  |  |  |
| O=S(=O)(NC1=NOC2(CCCCCCC2)C1)c1ccc2ccccc2c1 [3j] | > 50 µM | 20.3 ± 0.3 µM |  |  | 20 ± 11 µM | > 50 µM |  | both acute and chronic cytotoxicity |  |  |  |  |  |  |
| Cc1ccc(S(=O)(=O)N(C2=NOC3(CCCCCCC3)C2)S(=O)(=O)c2ccc(C)cc2)cc1 [4d, 4-Methyl-N-(1-oxa-2-azaspiro[4.7]dodec-2-en-3-yl)-N-tosylbenzenesulfonamide] | > 50 µM | 3 ± 1.9 µM | > 50 µM | > 50 µM | 21 ± 13 µM | > 50 µM |  |  | 151 to 153 °C |  |  |  |  |  |
| Cc1cc(C)c(S(=O)(=O)N(C2=NOC3(CCCCCCC3)C2)S(=O)(=O)c2c(C)cc(C)cc2C)c(C)c1 [4e, N-(Mesitylsulfonyl)-2,4,6-trimethyl-N-(1-oxa-2-azaspiro[4.7]dodec-2-en-3-yl)benzenesulfonamide] | > 50 µM | 4.8 ± 1 µM | > 50 µM | > 50 µM | 12 ± 7 µM | > 50 µM |  |  | 180 to 182 °C |  |  |  |  |  |
| O=S(=O)(c1ccc2c(c1)OCCO2)N(C1=NOC2(CCCCCCC2)C1)S(=O)(=O)c1ccc2c(c1)OCCO2 [4f, N-((2,3-Dihydrobenzo[b][1, 4]dioxin-6-yl)sulfonyl)-N-(1-oxa-2-azaspiro[4.7]dodec-2-en-3-yl)-2,3-dihydrobenzo[b][1, 4]dioxine-6-sulfonamide] | > 50 µM | 7.1 ± 1 µM | > 50 µM | > 50 µM | 13 ± 6 µM | > 50 µM |  |  | 191 to 193 °C |  |  |  |  |  |
| O=S(=O)(c1ccc(F)cc1F)N(C1=NOC2(CCCCCCC2)C1)S(=O)(=O)c1ccc(F)cc1F [4g, N-((2,4-Difluorophenyl)sulfonyl)-2,4-difluoro-N-(1-oxa-2-azaspiro[4.7]dodec-2-en-3-yl)benzenesulfonamide] | > 50 µM | 9.8 ± 2.6 µM | > 50 µM | > 50 µM | > 50 µM | > 50 µM |  |  | 61 to 62 °C |  |  |  |  |  |
| O=[N+]([O-])c1ccccc1S(=O)(=O)N(C1=NOC2(CCCCCCC2)C1)S(=O)(=O)c1ccccc1[N+](=O)[O-] [4h, 2-Nitro-N-((2-nitrophenyl)sulfonyl)-N-(1-oxa-2-azaspiro[4.7]dodec-2-en-3-yl)benzenesulfonamide] | > 50 µM | 7.8 ± 1 µM |  |  | 20 ± 11 µM | > 50 µM |  | only acute toxic | 155 to 157 °C |  |  |  |  |  |
| O=[N+]([O-])c1ccc(S(=O)(=O)N(C2=NOC3(CCCCCCC3)C2)S(=O)(=O)c2ccc([N+](=O)[O-])cc2)cc1 [4i, 4-Nitro-N-((4-nitrophenyl)sulfonyl)-N-(1-oxa-2-azaspiro[4.7]dodec-2-en-3-yl)benzenesulfonamide] | > 50 µM | 5.3 ± 1 µM |  |  | 2 ± 0.5 µM | > 50 µM |  | both acute and chronic cytotoxicity | 178 to 180 °C |  |  |  |  |  |
| O=S(=O)(c1ccc2ccccc2c1)N(C1=NOC2(CCCCCCC2)C1)S(=O)(=O)c1ccc2ccccc2c1 [4j, N-(Naphthalen-2-ylsulfonyl)-N-(1-oxa-2-azaspiro[4.7]dodec-2-en-3-yl)naphthalene-2-sulfonamide] | > 50 µM | 1.3 ± 0.5 µM | > 50 µM | > 50 µM | 17 ± 3 µM | > 50 µM |  |  | 160 to 161 °C |  |  |  |  |  |
| O=S(=O)(c1cccs1)N(C1=NOC2(CCCCCCC2)C1)S(=O)(=O)c1cccs1 [4k, N-(1-Oxa-2-azaspiro[4.7]dodec-2-en-3-yl)-N-(thiophen-2-ylsulfonyl)thiophene-2-sulfonamide] | > 50 µM | 10 ± 4 µM | > 50 µM | > 50 µM | > 50 µM | > 50 µM |  |  | 147 °C |  |  |  |  |  |
| O=S(=O)(c1cccnc1)N(C1=NOC2(CCCCCCC2)C1)S(=O)(=O)c1cccnc1 [4l, N-(Pyridin-3-ylsulfonyl)-N-(1-oxa-2-azaspiro[4.7]dodec-2-en-3-yl)pyridine-3-sulfonamide] | > 50 µM | 8 ± 4 µM | > 50 µM | > 50 µM | 15 ± 4 µM | > 50 µM |  |  | 151 to 152 °C |  |  |  |  |  |
| O=S(=O)(Cc1ccccc1)N(C1=NOC2CCCCCCC12)S(=O)(=O)Cc1ccccc1 (stereo not drawn) [5b, N-(Benzylsulfonyl)-N-(3a,4,5,6,7,8,9,9a-octahydrocycloocta[d]isoxazol-3-yl)-1-phenylmethanesulfonamide] | > 50 µM | 6.3 ± 1.2 µM | > 50 µM | > 50 µM | 21.7 ± 2.8 µM | > 50 µM |  |  | 198 to 199 °C |  |  |  |  |  |
| O=S(=O)(c1ccccc1)N(C1=NOC2CCCCCCC12)S(=O)(=O)c1ccccc1 (stereo not drawn) [5c, N-(3a,4,5,6,7,8,9,9a-Octahydrocycloocta[d]isoxazol-3-yl)-N-(phenylsulfonyl)benzenesulfonamide] | > 50 µM | 18 ± 4 µM | > 50 µM | > 50 µM | > 50 µM | > 50 µM |  |  | 107 to 108 °C |  |  |  |  |  |
| Cc1ccc(S(=O)(=O)N(C2=NOC3CCCCCCC23)S(=O)(=O)c2ccc(C)cc2)cc1 (stereo not drawn) [5d, 4-Methyl-N-(3a,4,5,6,7,8,9,9a-octahydrocycloocta[d]isoxazol-3-yl)-N-tosylbenzenesulfonamide] | > 50 µM | 14 ± 8 µM | > 50 µM | > 50 µM | 34 ± 4 µM | > 50 µM |  |  | 113 to 114 °C |  |  |  |  |  |
| Cc1cc(C)c(S(=O)(=O)N(C2=NOC3CCCCCCC23)S(=O)(=O)c2c(C)cc(C)cc2C)c(C)c1 (stereo not drawn) [5e, N-(Mesitylsulfonyl)-2,4,6-trimethyl-N-(3a,4,5,6,7,8,9,9a-octahydrocycloocta[d]isoxazol-3-yl)benzenesulfonamide] | > 50 µM | 4 ± 0.6 µM | > 50 µM | > 50 µM | 10 ± 5 µM | > 50 µM |  |  | 148 to 149 °C |  |  |  |  |  |
| O=S(=O)(c1ccc2c(c1)OCCO2)N(C1=NOC2CCCCCCC12)S(=O)(=O)c1ccc2c(c1)OCCO2 (stereo not drawn) [5f, N-((2,3-Dihydrobenzo[b][1, 4]dioxin-6-yl)sulfonyl)-N-(3a,4,5,6,7,8,9,9a-octahydrocycloocta[d]isoxazol-3-yl)-2,3-dihydrobenzo[b][1, 4]dioxine-6-sulfonamide] | > 50 µM | 16 ± 10 µM | > 50 µM | > 50 µM | 29 ± 7 µM | > 50 µM |  |  | 129 to 130 °C |  |  |  |  |  |
| O=S(=O)(c1ccc(F)cc1F)N(C1=NOC2CCCCCCC12)S(=O)(=O)c1ccc(F)cc1F (stereo not drawn) [5g, N-((2,4-difluorophenyl)sulfonyl)-2,4-difluoro-N-(3a,4,5,6,7,8,9,9a-octahydrocycloocta[d]isoxazol-3-yl)benzenesulfonamide] | > 50 µM | 12 ± 6 µM | > 50 µM | > 50 µM | 33 ± 15 µM | > 50 µM |  |  | 129 to 131 °C |  |  |  |  |  |
| O=[N+]([O-])c1ccc(S(=O)(=O)N(C2=NOC3CCCCCCC23)S(=O)(=O)c2ccc([N+](=O)[O-])cc2)cc1 (stereo not drawn) [5i, 4-Nitro-N-((4-nitrophenyl)sulfonyl)-N-(3a,4,5,6,7,8,9,9a-octahydrocycloocta[d]isoxazol-3-yl)benzenesulfonamide] | 41 ± 1.8 µM | 19 ± 11 µM | > 50 µM | > 50 µM | 19 ± 4 µM | > 50 µM |  |  | 139 to 140 °C | slightly toxic |  |  |  |  |
| O=S(=O)(c1ccc2ccccc2c1)N(C1=NOC2CCCCCCC12)S(=O)(=O)c1ccc2ccccc2c1 (stereo not drawn) [5j, N-(Naphthalen-2-ylsulfonyl)-N-(3a,4,5,6,7,8,9,9a-octahydrocycloocta[d]isoxazol-3-yl)naphthalene-2-sulfonamide] | > 50 µM | 5.9 ± 1.8 µM | > 50 µM | > 50 µM | 10 ± 2.4 µM | > 50 µM |  |  | 160 to 162 °C |  |  |  |  |  |
| O=S(=O)(c1cccs1)N(C1=NOC2CCCCCCC12)S(=O)(=O)c1cccs1 (stereo not drawn) [5k, N-(3a,4,5,6,7,8,9,9a-Octahydrocycloocta[d]isoxazol-3-yl)-N-(thiophen-2-ylsulfonyl)thiophene-2-sulfonamide] | > 50 µM | 18 ± 4 µM |  |  | 20 ± 3 µM | > 50 µM |  | both acute and chronic cytotoxicity | 131 to 132 °C |  |  |  |  |  |
| O=S(=O)(c1cccnc1)N(C1=NOC2CCCCCCC12)S(=O)(=O)c1cccnc1 (stereo not drawn) [5l, N-(3a,4,5,6,7,8,9,9a-Octahydrocycloocta[d]isoxazol-3-yl)-N-(pyridin-3-ylsulfonyl)pyridine-3-sulfonamide] | > 50 µM | > 50 µM | > 50 µM | > 50 µM | 36 ± 4 µM | > 50 µM |  |  | 150 to 151 °C |  | complete loss of anti-WNV activity |  |  |  |
| CC(C)CCN1C(=O)[C@]2(CC(=O)Nc3c2nnn3[C@@H](C)c2ccc(Cl)cc2)c2cc(Cl)ccc21 [JMX0254] |  |  |  |  |  |  |  |  |  |  |  | 0.78 µM | 0.035 µM | 0.16 µM |
